Measured values reported in US7482124B2, “Method of identifying a PPARgamma-agonist compound having a decreased likelihood of inducing dose-dependent peripheral edema” (Bristol-Myers Squibb Company, priority 2005, dated 2009).
“And” between values parts separate entries of the source, which are not always exact repeats. Identical values can stand only once.

Experiments:
[1] = system: human renin gene expression in CALU-6 cells; assay: Renin gene expression in CALU-6 cells, quantitative RT-PCR dose-titration; assay type: cell-based
Text: (§1) Cell line maintenance: CALU-6 cells and growth media were obtained from ATCC® (Manassas, Va.). CALU-6 cells were recovered and expanded in complete growth media (Minimal Essential Media+Earle's Balanced Salt Solution, 1% penicillin/streptomycin, 10% Fetal Bovine Serum). Antibiotics and FBS were purchased from Invitrogen.
(§2) Compounds: Compound A, Compound B, Compound D, Compound C, Compound G, Compound F, Compound H, Compound I, Compound J and Compound K were synthesized at Bristol-Myers Squibb Co. Compound E was purified by reverse phase high-performance liquid chromatography from commercial pharmaceutical preparations. Compounds A, B, F, and G are dual PPAR alpha and gamma agonists; while compounds C, D, and E are single PPAR gamma agonists. Fenofibrate and DMSO were purchased from Sigma. […]
(§3) Quantitative RT-PCR experiments: CALU-6 cells were seeded on day 0 in at 5×10^5 cells/well, in 6-well tissue culture plates. […] RNA quantities were determined spectrophotometrically using a SPECTRAMAX® 384 spectrophotometer (Molecular Devices). […] All data were further analyzed using Microsoft Excel. Fold-change in gene expression upon treatment with compound was expressed as […] ΔCt, where ΔΔCt=(Ctrenin, endothelin-1−CtGAPDH)DMSO−(Ctrenin, endothelin-1−CtGAPDH)treatment. […] Dose-titration experiments were further analyzed using GraphPad Prism Software (GraphPad Inc) to derive EC50 values. […]

[2] = system: human endothelin-1 gene expression in CALU-6 cells; assay: Endothelin-1 gene expression in CALU-6 cells, quantitative RT-PCR dose-titration; assay type: cell-based
Text: as §1, §2, §3

[3] = system: human renin gene expression in CALU-6 cells; assay: Human renin expression profile in CALU-6 cells by quantitative RT-PCR (Example 7); assay type: cell-based; conditions: qRT-PCR, CALU-6, 5×EC50, 24 hr, FIG. 11
Protocol: Since RAAS plays a fundamental role in fluid volume homeostasis, the possibility that PPAR agonists may contribute to agonist-induced edema mechanism of action through the modulation of other components of this system, specifically renin, was investigated using quantitative RT-PCR. Briefly, gene expression studies were performed using a cell line that was previously shown to express endogenous renin mRNA, CALU-6 (Lang et al., 1995).
The human lung carcinoma cell line, CALU-6, was chosen on account of it being previously shown to endogenously express renin. […]
(§4) Compounds A, B, C, D, and F were synthesized at Bristol-Myers Squibb Co. Compound E was purified by reverse phase high-performance liquid chromatography from commercial pharmaceutical preparations. […] The final concentration of each PPAR-agonist used in the induction studies was 5×EC50 as determined from pre-adipocyte differentiation studies (data not shown). […]
(§5) CALU-6 cells were seeded on day 0 in replicates of six (or twelve for DMSO control), at 5×10^5 cells/well, in 6-well tissue culture plates. […] RNA quantities were determined spectrophotometrically using a SPECTRAMAX® 384 spectrophotometer (Molecular Devices). RNA quality was assessed using an Agilent 2100 Bioanalyzer (Agilent Technologies) following the manufacturer's recommendations. […]

[4] = system: human renin gene expression in CALU-6 cells; assay: Human renin expression in CALU-6 cells by microarray analysis (Example 8); assay type: cell-based; conditions: CALU-6, 5×EC50, 24 hr, FIGS. 12A-B
Protocol: As an independent measurement of the renin induction by PPAR agonists observed using RT-PCR (see Example 7 and FIG. 11), four of the experimental treatment groups described under the “Induction Experiments” section in Example 7, were analyzed on AFFYMETRIX® genechips, including; DMSO, Compound A, Compound B, and Compound E. Triplicate samples from each treatment group were analyzed.
All cDNA and cRNA synthesis as well as all hybridizations and subsequent washing steps were performed following the […]® Expression Analysis Technical Manual (Affymetrix). AFFYMETRIX® HG-U133A gene chips were used for all expression profiling studies in this invention.
Micro Array Suite (MAS) 5.0 (Affymetrix) software was used to pre-process all micro-array data. Each treated sample (including DMSO control) was first scaled to an average intensity value of 1500. The data was further analyzed in Excel '97 (Microsoft).
All treated samples were compiled into one Excel spreadsheet such that each compound treated sample (and DMSO control) was aligned for all 22283 genes on the HG-U133A […]®. Gene fold-change values were calculated by dividing the mean signal intensity of each treatment group by the mean signal intensity of the DMSO control. Pair-wise 2-tailed Student's t-tests were performed for each treatment group.

[5] = system: human endothelin-1 gene expression in CALU-6 cells; assay: Human endothelin-1 expression profile in CALU-6 cells by quantitative RT-PCR (Example 15); assay type: cell-based
Protocol: On account of the involvement of ET-1 in vascular tone maintenance, along with its involvement in numerous cardiovascular disease processes, the possibility that PPAR agonists may contribute to an agonist-induced edema mechanism of action through the modulation of endoethelin-1, was investigated using quantitative RT-PCR. Briefly, gene expression studies were performed using a cell line that was previously shown to express endogenous endothelin mRNA, CALU-6 (Lang et al., 1995).
The human lung carcinoma cell line, CALU-6, was obtained from ATCC®. […]
as §4, §5

[6] = system: patients; assay: Dose-dependent peripheral edema in Phase II clinical trials CV168-006 and CV168-008; assay type: in vivo, human
Protocol: Genomic DNA samples from patients enrolled in two Bristol-Myers Squibb Company Phase II clinical trials CV168-006 and CV168-008 trials were genotyped for 50 SNPs identified in the human renin gene (see Example 1) and evaluated for association with edema.
498 subjects enrolled in the CV168-006 trial and 232 subjects from the CV168-008 trial were analyzed in this study. All analyses were based on data collected up to 24 weeks, which was the duration of the short-term phase of the trials. DNA was extracted from frozen blood by a third-party (Genaissance Inc, North Carolina) using a salting-out method (Gentra Systems). All subjects gave written informed consent.
The association between peripheral edema and the renin single nucleotide polymorphisms of the present invention were investigated by applying statistical analysis to the results of the genotyping assays described elsewhere herein. The central hypothesis of this analysis is that a predisposition to develop dose-dependent peripheral edema may be conferred by specific genomic factors. The analysis attempted to identify one or more of these factors in genomic DNA samples from index cases and matched control subjects who were exposed to Compound A in two Bristol-Myers Squibb (BMS) clinical studies (see Example 2).
Sample. Investigators in the BMS clinical trials diagnosed dose-dependent peripheral edema in some subjects.
Table A provides a distribution of the frequency of dose-dependent peripheral edema by treatment arm.

[7] = system: diabetics; conditions: literature (Leff and Reed 2002; Nesto et al. 2003); cited from earlier work
[8] = Dose E (133 subjects), 40 fold Dose A

## COc1ccc(OC(=O)N(CC(=O)O)Cc2ccc(OCCc3nc(-c4ccccc4)oc3C)cc2)cc1 [COM. A, N-[(4-methoxyphenoxy)carbonyl]-N-[[4-[2-(5-methyl-2-phenyl-4-oxazolyl)ethoxy]phenyl]methyl] glycine]
[1]; CALU-6, qRT-PCR, FIG. 21A
  increase of renin mRNA, factor: fifteen to twenty
[1]; Homo sapiens, mean ± SEM, renin up-regulation, dose-titration experiments (n = 3 to n = 18), CALU-6, 24 hr
  EC50: 96.3 ± 32 nM
[2]; CALU-6, qRT-PCR, FIG. 21A
  down-regulation of endothelin-1 gene expression, factor: four to five
[2]; Homo sapiens, mean ± SEM, endothelin-1 down-regulation, dose-titration experiments (n = 3 to n = 18), CALU-6, 24 hr
  IC50: 18 ± 6.07 nM
[3]
  human renin expression, fold-change over DMSO treated cells: significantly elevate
[4]
  human renin expression, fold-change over DMSO treated cells: significantly increased
[5]; CALU-6, 5×EC50
  difference in level of endothelin-1 repression compared to other PPAR agonists studied: no significant difference
[5]; qRT-PCR, CALU-6, 5×EC50, 24 hr, FIGS. 16 and 17
  human endothelin-1 expression, fold-change over DMSO treated cells: significantly decrease
[6]; Dose A (79 subjects)
  Number of edema cases: 16
  edema cases (%): 20%
[6]; Dose B (90 subjects)
  Number of edema cases: 14
  edema cases (%): 16%
[6]; Dose C (125 subjects)
  Number of edema cases: 13
  edema cases (%): 10%
[6]; Dose D (129 subjects)
  Number of edema cases: 27
  edema cases (%): 21%
[6]; [8]
  Number of edema cases: 54
  edema cases (%): 40% and 41%
[6]; dose increased from 0.5 mg to 20 mg
  frequency of edema with dose: frequency of edema increased
[7]
  edema in clinical use: acceptable incidence and severity of edema
